In patent US20220054493A1, “INHIBITORS OF NGAL PROTEIN” (INSERM (INSTITUT NATIONAL DE LA SANTÉ ET DE LA RECHERCHE …, priority 2019, published 2022):

What was measured:
human microsomes = assay: Stability in human microsomes; format: in vitro ADME
Experimental: Two specific toxicity assays have been performed to assess hepatoxicity and cardiotoxicity. Hepatotoxicity was evaluated in isolated hepatocytes from swiss mice and determined by the MTT colorimetric assay. Cardiotoxicity was evaluated using the commercially available Predictor hERG fluorescence polarization kit (Thermo Fisher Scientific). Several ADME assays have been carried out on the compounds generated throughout the project. The following experiments were undertaken: Stability in human microsomes, binding to human plasma protein, and CYP3A4 inhibition assay (Vivid CYP3A4 assay, Thermo Fisher Scientific). Physico-chemical properties were also assessed such as aqueous solubility and chemical stability.

CKD Mouse Model [1] = assay: Blood pressure in the CKD mouse model (subtotal nephrectomy); format: in vivo, mice; details: two months administration; FIG. 13
Experimental: Systolic BP was measured by tail-cuff plethysmography in trained conscious mice at weeks 8-10 using a BP2000 Visitech model. BP was measured every day in the same room at the same hour for 5 consecutive days. The BP measurements (expressed as mmHg) presented are the averages of the last 3 days
(§1) Chronic kidney disease (CKD) was induced by subtotal nephrectomy (Nx) in eight-weeks-old FVB male mice (25-26 g). All surgeries were performed under ketamine/xylazine anaesthesia. Briefly, the left kidney was exposed, and the upper and lower poles were tied with a poly-glycolic acid suture line. The peritoneum and skin were then sutured, and the animals were returned to their individual cages. After one week of recovery, the second kidney was removed. Removal of the second kidney represents TO. Sham mice were subjected to the same surgical procedures but neither renal poles nor the right kidney were removed. Mice were monitored for any sign of distress, and those observed to be experiencing severe, unrelievable pain were euthanized. Renal failure was assessed by the measure of plasma creatinine and urea with an automatic analyser (Konelab 20i; Thermo Fisher Scientific, Vernon Hills, Ill.) at weeks 4 and 10 post-Nx.

CKD Mouse Model [2] = assay: Renal profibrotic and inflammatory gene expression in the CKD mouse model; format: in vivo, mice; details: kidney, two months administration
Experimental: as §1
Frozen tissues (kidneys, heart) were homogenized in TRIzol (Life Technologies, 15596018) using FastPrep beads (MP-Bio, 6913-100). cDNAs were generated using the Superscript II reverse transcriptase kit (Invitrogen, 18064022), and qPCR was performed as previously described. Briefly, transcript levels were analysed in a CFX396 apparatus (Biorad). The reactions were performed in duplicate for each sample using the IQ SYBR Green supermix Kit (Biorad, 170-8882). […]

microsomes degradation, left after 2 h (human microsomes; after 2 h): 2.2%
Micro Stability (human microsomes; human microsomes): 2.19%
SMILES: CC(=O)c1cccc(S(=O)(=O)NCc2ccccc2-n2cccn2)c1 [GPZ614741]
increase of blood pressure induced by CKD (CKD Mouse Model [1]): prevented the increase
profibrotic target genes (collagen1, fibronectin, alphaSMA) (CKD Mouse Model [2]; FIG. 15A): blunted the increase
inflammatory markers (IL6, MCP1, TNFalpha) (CKD Mouse Model [2]; FIG. 15B): no effects
